The test system of test [1] is BALB/c mice. The experiment in a line: In vivo adjuvant study: Env-specific cytokine-producing splenic CD4 and CD8 T cells. As to conditions: spleens 6-7 d after 2nd vaccination. From the text:
(§1) In phosphate-buffered saline (PBS), 25 micrograms gp120dV2EnvSF162 antigen (recombinant gp120 protein derived from sequence of HIV-1 strain SF162—the V2 domain was deleted; Pharm Res. 2004 Dec. 21(12):2148-52) as mixed with 50 microliters of MF59 adjuvant, followed the by the addition of 0, 1, 5, or 25 micrograms of a small molecule immune potentiator (SMIP) and adjusted to 100 microliters with PBS. 50 microliters of the solution was subsequently injected into both the left and right tibialis anterior muscles of female BALB/c mice (Day 0), for a total volume of 100 microliters per mouse. Four weeks later (Day 28), 50 microliters of the solution was again injected into both the left and right tibialis anterior muscles of the mouse. Seven days after the second vaccination ([…]), serum samples were collected, and a day later (day 35) spleens were removed. Serum samples were assayed by Env-specific serum IgG2a ELISA and Env-specific serum IgG1 ELISA. Spleen samples were assayed by Env-specific, cytokine-producing splenic CD4 and CD8 T cells.
(§2) BALB/c mise were immunized 2× with HIV gp120 formulated in MF59 +/− the indicated SMIPs (25 μg/ml). CpG 1826 (25 μg/ml) was used as a positive control. […] post-second serum was collected from the immunized mice and the anti-gp120-specific serum IgG2a (FIG. 4A) and IgG1 (FIG. 4B) geometric mean titers (GMT) were determined. In addition, spleens were also harvested from the immunized mice and ex vivo anti-gp120-specific T cell responses (FIG. 4C) were determined by intracellular cytokine staining for IL-2 and IFN-g. Results are percentage of antigen-specific T cells expressing the indicated cytokine.

Test [2] concerns BALB/c mice. The experiment in a line: In vivo adjuvant study: Env-specific serum IgG1 ELISA. Conditions: vaccinated day 0 and 28, sera 6-7 d after 2nd vaccination.
From the text: as §1, §2

The subject of test [3] is BALB/c mice. The experiment in a line: In vivo adjuvant study: Env-specific serum IgG2a ELISA. Conditions: vaccinated day 0 and 28, sera 6-7 d after 2nd vaccination.
From the text: as §1, §2
(In an ELISA, binding on a coated surface is turned into a signal by an enzyme label.)

The conditions of test [4]: Pope et al. Cellular Immunology 162: 333-339 (1995); cited from earlier work.
Setting [5] is: 1 μg added to gp120dV2/MF59 base vaccine.
The mark [6] stands for this setting: 5 μg added to gp120dV2/MF59 base vaccine.
Where [7] appears, read: 25 μg added to gp120dV2/MF59 base vaccine.

Take `CCCSc1nc2c(N)nc3ccccc3c2n1CC(C)C` [Example 11, 1-(2-methylpropyl)-2-(propylthio)-1H-imidazo[4,5-c]quinolin-4-amine]: the “Env-spec CD4 (%) IFN-γ+” value with BALB/c mice [1] (setting [5]), with BALB/c mice [1] (setting [6]) and in the test on BALB/c mice [1] (setting [7]) was 0.04% in each case. The entries for the “Env-spec CD4 (%) IL-2+” value in the test on BALB/c mice [1] (setting [5]), in the test with BALB/c mice [1] (setting [6]) and with BALB/c mice [1] (setting [7]) were 0.17%, 0.42% and 0.42%, respectively. Moreover, the “Env-spec CD8 (%) IFN-γ+” value is on record as 0.08% in the test on BALB/c mice [1] (setting [5]), 0.19% in the test with BALB/c mice [1] (setting [6]) and 0.18% in the test on BALB/c mice [1] (setting [7]). Also, the “Env-spec CD8 (%) IL2+” value in the test with BALB/c mice [1] (setting [5]) amounted to 0.17%; in the test with BALB/c mice [1] (setting [6]), 0.22%; with BALB/c mice [1] (setting [7]) it was 0.22%. The “Env-spec IgG1 titer, Geo mean” value in the test with BALB/c mice [2] (setting [5]) is on record as 35177; in the test with BALB/c mice [2] (setting [6]), 33477; with BALB/c mice [2] (setting [7]) it was 34199. For the same compound, the “Env-spec IgG2a titer, Geo mean” value in the test with BALB/c mice [3] (setting [5]) was found to be 512; with BALB/c mice [3] (setting [6]), 2922; with BALB/c mice [3] (setting [7]), 6507.
`C=CCn1c(=O)n([C@@H]2O[C@H](CO)[C@@H](O)[C@H]2O)c2nc(N)[nH]c(=O)c21` [Loxoribine]: in test [4], the “concentration causing useful production of TNF-α” value is 300 µM.
Regarding ODN-1826 [reference compound], in the test with BALB/c mice [1] (setting [7]), the “Env-spec CD4 (%) IFN-γ+” value amounted to 0.32%, the “Env-spec CD4 (%) IL-2+” value amounted to 0.47%, the “Env-spec CD8 (%) IFN-γ+” value was determined as 0.15% and the “Env-spec CD8 (%) IL2+” value stood at 0.12%. Also, in the test on BALB/c mice [2] (setting [7]), the “Env-spec IgG1 titer, Geo mean” value is on record as 30188. Further, the “Env-spec IgG2a titer, Geo mean” value with BALB/c mice [3] (setting [7]) is 201306.
In the case of `CCCN(C)c1nc2c(N)nc3ccccc3c2n1CC(C)(C)O` [Example 19, 1-{4-amino-2-[methyl(propyl)amino]-1H-imidazo[4,5-c]quinolin-1-yl}-2-methylpropan-2-ol], the “Env-spec CD4 (%) IFN-γ+” value with BALB/c mice [1] (setting [5]) was found to be 0.07%; with BALB/c mice [1] (setting [6]), 0.04%; in the test on BALB/c mice [1] (setting [7]), 0.29%. The “Env-spec CD4 (%) IL-2+” value with BALB/c mice [1] (setting [5]) is given as 0.14%; in the test with BALB/c mice [1] (setting [6]), 0.40%; with BALB/c mice [1] (setting [7]), 0.76%. The “Env-spec CD8 (%) IFN-γ+” value with BALB/c mice [1] (setting [5]) was 0.21%; with BALB/c mice [1] (setting [6]) it was 0.35%; with BALB/c mice [1] (setting [7]) it was 0.07%. In addition, the “Env-spec CD8 (%) IL2+” value in the test with BALB/c mice [1] (setting [5]) was found to be 0.14%; with BALB/c mice [1] (setting [6]) it was 0.37%; with BALB/c mice [1] (setting [7]) it was 0.10%. Further, the “Env-spec IgG1 titer, Geo mean” value in the test with BALB/c mice [2] (setting [5]) is 30536; in the test with BALB/c mice [2] (setting [6]), 29502; in the test on BALB/c mice [2] (setting [7]) it was 38255. Moreover, the “Env-spec IgG2a titer, Geo mean” value is reported as 1215 in the test with BALB/c mice [3] (setting [5]), 10104 with BALB/c mice [3] (setting [6]) and 18733 in the test on BALB/c mice [3] (setting [7]).

(Values after patent publication US20130096103A1, “IMIDAZOQUINOLINE COMPOUNDS” (NOVARTIS VACCINES & DIAGNOSTICS, INC., priority 2004, published 2013).)
